Assay results as given in ChEMBL document CHEMBL1201862, “PubChem BioAssay data set” (2004).
Activity calls are given as the source filed them.

Assays:
[1] = target: T1, Sentrin-specific protease 8 (Homo sapiens, UniProt Q96LD8); assay type: functional;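 note: luminescence read-out of SENP8 inhibition, dose-response confirmation following an ultra-high-throughput screen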
T1 sequence (Q96LD8 whole entry): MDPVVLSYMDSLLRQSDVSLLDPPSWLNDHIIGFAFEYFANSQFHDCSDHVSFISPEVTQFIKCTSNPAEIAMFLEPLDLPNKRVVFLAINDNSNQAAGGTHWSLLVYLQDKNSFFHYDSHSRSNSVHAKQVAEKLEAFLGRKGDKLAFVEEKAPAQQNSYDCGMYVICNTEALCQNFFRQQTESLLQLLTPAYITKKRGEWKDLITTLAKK

[2] = alpha-synuclein stem-loop luciferase translation blockers – H4 neuroglioma cells, luminescence, confirmation (AID 1988); assay type: functional, cell-based
[3] = luciferase reporter signal suppression in cells – H4 neuroglioma cells, luminescence, dose response (AID 1990); assay type: functional, cell-based
[4] = target: T2, Replicative DNA helicase DnaB (Mycobacterium tuberculosis, UniProt P9WMR3); test: DnaB intein splicing inhibitors, dose response, biochemical, cell-free fluorescence (AID 449749); assay type: functional
T2 sequence (P9WMR3 whole entry): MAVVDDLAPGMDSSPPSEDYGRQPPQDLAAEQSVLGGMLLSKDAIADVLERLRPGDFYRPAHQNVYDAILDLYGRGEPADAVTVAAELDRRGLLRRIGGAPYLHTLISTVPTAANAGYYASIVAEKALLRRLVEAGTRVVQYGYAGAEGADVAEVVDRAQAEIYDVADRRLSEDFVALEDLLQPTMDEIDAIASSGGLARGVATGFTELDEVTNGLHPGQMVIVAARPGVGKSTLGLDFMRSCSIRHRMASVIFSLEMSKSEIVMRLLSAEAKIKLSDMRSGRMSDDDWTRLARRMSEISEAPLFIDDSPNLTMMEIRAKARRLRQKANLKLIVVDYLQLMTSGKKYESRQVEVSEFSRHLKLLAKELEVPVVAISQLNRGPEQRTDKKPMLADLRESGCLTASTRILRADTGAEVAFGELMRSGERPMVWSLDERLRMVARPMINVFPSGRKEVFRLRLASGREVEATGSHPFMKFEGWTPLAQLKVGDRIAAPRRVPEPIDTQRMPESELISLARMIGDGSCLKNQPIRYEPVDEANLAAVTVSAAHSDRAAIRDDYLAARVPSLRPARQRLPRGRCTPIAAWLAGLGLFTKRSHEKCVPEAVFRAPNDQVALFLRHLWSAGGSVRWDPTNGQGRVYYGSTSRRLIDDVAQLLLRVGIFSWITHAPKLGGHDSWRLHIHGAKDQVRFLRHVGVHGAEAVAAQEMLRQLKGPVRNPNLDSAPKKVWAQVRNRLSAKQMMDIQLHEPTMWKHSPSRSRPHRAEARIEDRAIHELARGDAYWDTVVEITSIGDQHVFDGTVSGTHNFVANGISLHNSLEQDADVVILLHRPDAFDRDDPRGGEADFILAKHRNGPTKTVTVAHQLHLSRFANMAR

[5] = target: T3, Protein RecA (Mycobacterium tuberculosis, UniProt P9WHJ3); test: Fluorescence Cell-Free Homogeneous Dose Retest to Identify Inhibitors of RecA-Intein Splicing Activity. [Related pubchem assays (depositor defined):AID2097, AID2223, AID489010, AID492950]; assay type: functional
T3 sequence (P9WHJ3 whole entry): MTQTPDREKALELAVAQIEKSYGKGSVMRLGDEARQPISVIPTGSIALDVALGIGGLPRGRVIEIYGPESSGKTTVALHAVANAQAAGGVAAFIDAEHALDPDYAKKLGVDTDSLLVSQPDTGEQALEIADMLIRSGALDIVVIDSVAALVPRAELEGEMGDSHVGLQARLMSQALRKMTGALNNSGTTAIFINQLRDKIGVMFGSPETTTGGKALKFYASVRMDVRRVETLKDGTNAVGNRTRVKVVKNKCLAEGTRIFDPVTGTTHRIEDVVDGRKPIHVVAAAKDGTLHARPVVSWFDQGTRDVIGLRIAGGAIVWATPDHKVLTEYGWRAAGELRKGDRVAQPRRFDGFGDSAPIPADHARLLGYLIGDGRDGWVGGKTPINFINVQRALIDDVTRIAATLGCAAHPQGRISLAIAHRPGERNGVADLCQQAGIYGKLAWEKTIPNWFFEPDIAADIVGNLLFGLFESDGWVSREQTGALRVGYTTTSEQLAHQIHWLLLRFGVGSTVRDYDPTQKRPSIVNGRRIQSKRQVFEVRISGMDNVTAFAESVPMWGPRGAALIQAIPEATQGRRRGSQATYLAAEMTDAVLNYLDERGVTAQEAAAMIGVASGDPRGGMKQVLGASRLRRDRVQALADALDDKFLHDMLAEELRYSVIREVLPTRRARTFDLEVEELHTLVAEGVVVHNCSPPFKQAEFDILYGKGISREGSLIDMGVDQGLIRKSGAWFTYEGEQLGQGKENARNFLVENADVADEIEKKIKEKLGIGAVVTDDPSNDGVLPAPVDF

[6] = target: T4, Hexokinase HKDC1 (Homo sapiens, UniProt Q2TB90); test: inhibition of HKDC1 glucose phosphorylation – biochemical, W721R variant, dose response (AID 504729); assay type: functional
T4 sequence (Q2TB90 whole entry): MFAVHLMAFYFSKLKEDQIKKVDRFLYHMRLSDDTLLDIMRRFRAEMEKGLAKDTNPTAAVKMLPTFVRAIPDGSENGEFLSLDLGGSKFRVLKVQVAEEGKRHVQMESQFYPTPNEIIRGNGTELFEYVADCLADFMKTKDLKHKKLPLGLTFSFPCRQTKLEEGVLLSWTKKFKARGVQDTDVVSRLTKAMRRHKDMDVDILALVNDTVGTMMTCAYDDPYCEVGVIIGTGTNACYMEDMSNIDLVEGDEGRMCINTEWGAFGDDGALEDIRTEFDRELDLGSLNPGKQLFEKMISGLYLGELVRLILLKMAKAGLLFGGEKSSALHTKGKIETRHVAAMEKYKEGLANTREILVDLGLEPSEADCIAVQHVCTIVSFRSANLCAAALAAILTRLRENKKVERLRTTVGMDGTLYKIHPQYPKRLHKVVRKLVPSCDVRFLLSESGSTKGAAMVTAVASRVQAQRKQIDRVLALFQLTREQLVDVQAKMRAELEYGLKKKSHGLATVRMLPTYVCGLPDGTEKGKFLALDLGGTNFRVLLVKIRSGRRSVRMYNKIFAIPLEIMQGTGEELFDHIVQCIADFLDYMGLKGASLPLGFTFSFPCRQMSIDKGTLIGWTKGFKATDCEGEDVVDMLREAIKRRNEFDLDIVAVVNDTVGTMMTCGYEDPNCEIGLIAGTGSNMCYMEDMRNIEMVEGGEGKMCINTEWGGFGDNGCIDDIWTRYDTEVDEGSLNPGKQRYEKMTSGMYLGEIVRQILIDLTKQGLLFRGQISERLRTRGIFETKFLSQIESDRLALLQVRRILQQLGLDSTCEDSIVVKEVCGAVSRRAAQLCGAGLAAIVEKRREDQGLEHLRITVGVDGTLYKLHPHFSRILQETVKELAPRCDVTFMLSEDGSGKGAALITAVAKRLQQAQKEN

**Q.** For `Oc1ccc(N=Nc2c(O)ccc3ccccc23)cc1`, which IC50 [1] is on record?
**A.** Its IC50 is 8.8 µM (active).

**Q.** What does the source list for `O=C(CCc1ccccc1)NNc1cc(N2CCCCC2)nc(N2CCCCC2)n1`?
**A.** EC50 [2]: > 120 µM (not active); EC50 [3]: > 120 µM (not active)

**Q.** Which results are given for `O=C(O)C1Nc2c(O)cc(Cl)c([N+](=O)[O-])c2C2C=CCC12` (centres undefined)?
**A.** AC50 [4]: 12.8 µM (active); EC50 [5]: 11.5 µM (active)

**Q.** For `O=C1C=C(N2CCCCC2)c2ccccc2C1=O`, which EC50 [2] is on record?
**A.** Its EC50 is 9.02 µM (active).

**Q.** What about the IC50 [6] of the same molecule?
**A.** Its IC50 is 1.34 µM (active).

**Q.** What about the EC50 [3] of the same molecule?
**A.** The EC50 was > 120 µM (not active).

**Q.** And the EC50 [5]?
**A.** The EC50 was 1.25 µM (active).

**Q.** With `CC(=O)NC1C(=O)N(CCN2CCOCC2)c2ccc(F)cc21` (centres undefined) as the molecule, how does the AC50 [4] read?
**A.** The AC50 was 12.3 µM (active).

**Q.** What about the IC50 [6] of the same molecule?
**A.** The IC50 was 9.43 µM (active).

**Q.** What about the EC50 [5] of the same molecule?
**A.** Its EC50 is 12.1 µM (active).

**Q.** Which IC50 [1] does the source give for `Clc1ccc2nc(-c3ccc(Br)s3)cn2c1` here?
**A.** Its IC50 is 16.5 µM (active).

**Q.** For `O=C1N=C(NS(=O)(=O)Cc2ccccc2)S/C1=C1\C(=O)Nc2ccccc21`, which IC50 [1] is on record?
**A.** The IC50 was 24.5 µM (active).
